The values below come from patent US20240269104A1, “METHOD FOR TREATING PARKINSON'S DISEASE” (Olatec Therapeutics, Inc., priority 2021, published 2024).

For data set [1], the system named is MPTP-injected-mouse model of PD. As to the kind of experiment: accelerating rotarod test after MPTP-acute administration. It is filed as in vivo, C56BL/J mice. The note with it: anakinra 20 mg/kg intraperitoneal 30 minutes before MPTP; day 3. The procedure: MPTP (Sigma-Aldrich, St. Louis, MO) can be administered at two dose regimens: acute and sub-acute. For the acute regimen, MPTP was administered intraperitoneally (i.p.) four times in one day. Administrations were performed every two hours over an eight-hour period. For the subacute regimen, mice received a single i.p. administration of MPTP per day for five consecutive days. A 20 mg/kg free-base MPTP dose was used for every dose in both models. Sterile saline was used as the vehicle. Control mice were injected with saline solution using the same administration protocol and were defined as sham. Mice were sacrificed at different days after the first injection of MPTP. We used the acute protocol in C56BL/J mice to study dopamine neurodegeneration, inflammation, and motor deficits, whereas the subacute model was used to evaluate α-synuclein aggregation in the following examples. […]
The accelerating rotarod (Ugo Basile, Gemonio, ITALY) was used to evaluate locomotor function in mice subjected to the MPTP-acute administration. An accelerating program was selected to detect locomotor impairments associated to MPTP (Keshet et al, J Comp Neurol 504:690-701, 2007; Rui et al., Int J Neuropsychopharmacol., 2020). We used a rotarod device with a cylinder rod of three centimeters in diameter. The mice underwent a training period of three consecutive days prior to MPTP administration. In each training session, mice were subjected to run at four constant speeds (10 rpm, 20 rpm, 30 rpm, and 40 rpm) for 150 seconds at each speed. If mice fell during that time, they were put back in the rotarod immediately. On the testing day, we used an increased-speed program. Mice were placed on the rotarod device for 150 seconds at 30 rpm as warm up. Immediately after 150 seconds, the accelerating session started, and the speed increased from 30 rpm to 70 rpm for 500 seconds. Time to fall was recorded. Accelerating sessions were repeated three times with a resting interval of five minutes between sessions. Average time to fall per mouse was calculated and used as final measurement.
We then evaluated the effect of dapansutrile. To avoid overloading animals with fluid (which can lead to fatal heart failure), dapansutrile was administered through oral gavage at 200 mg/kg in water. Dapansutrile was given 30 minutes before the first injection of MPTP. Mice treated with saline were used as control. We also included a sham-group that received saline through intraperitoneal injections instead of MPTP. […]

The conditions of data set [2]: in vivo; cited from earlier work.

With “anakinra: Interleukin-1 receptor antagonist (IL-1Ra), 17.3 kDa; differs from native human IL-1Ra by an added amino-terminal methionine and absence of glycosylation [reference compound]”, the “rotarod latency to fall versus control mice treated with saline” value in data set [1] is listed as “the same latency to fall”. For the same substance, the CSF penetration in data set [2] was 0.2-0.3%.
